Laboratory results reported in US10966426B2, “Herbicidal compositions comprising phenylpyrimidines” (BASF SE, priority 2016, dated 2021).
Values joined by “and” are separate entries in the source; they are usually repeats but may differ in a detail not shown here. Equal values may be shown once.

Tests used:
Assay type in all cases: in vivo
Poa annua = assay: greenhouse pre-emergence treatment, POAAN; settings: 20 DAT
How it was run: (§1)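 Damage rated on 0 to 100 scale (0 = normal growth, 100 = no emergence or total above-ground kill) after 2-4 weeks at species-dependent 10-25° C or 20-35° C. Seeds sown per species in loamy sand, ~3.0% humus, treated right after sowing with aqueous spray of single actives or 10% emulsion-concentrate mixtures, then hooded; additive expectation by Colby.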

Polygonum aviculare = assay: greenhouse post-emergence treatment, POLAV
How it was run: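 Foliar application to greenhouse-grown plants 3–15 cm tall in humus-containing loamy sand; response assessed on a 0–100 scale after 2–4 weeks, with Colby's E=X+Y−(X·Y/100) as the additive expectation.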

Galium aparine = assay: greenhouse pre-emergence treatment, GALAP
How it was run: as §1

Helianthus annuus = assay: greenhouse pre-emergence treatment, HELAN; settings: HELAN
How it was run: as §1

Lolium multiflorum = assay: greenhouse pre-emergence treatment, LOLMU
How it was run: as §1

Matricaria chamomilla = assay: greenhouse pre-emergence treatment, MATCH; settings: 20 DAT
Text: The culture containers used were plastic pots containing loamy sand with approximately 3.0% of humus as substrate. The seeds of the test plants were sown separately for each species.
For the pre-emergence treatment, the active compounds, suspended or emulsified in water, were applied directly after sowing by means of finely distributing nozzles. The containers were irrigated gently to promote germination and growth and subsequently covered with transparent plastic hoods until the plants had rooted. This cover caused uniform germination of the test plants unless this was adversely affected by the active compounds.
Depending on the species, the plants were kept at 10-25° C. and 20-35° C., respectively.
The test period extended over 2 to 4 weeks. During this time, the plants were tended and their response to the individual treatments was evaluated.
Evaluation was carried out using a scale from 0 to 100. 100 means no emergence of the plants, or complete destruction of at least the above-ground parts, and 0 means no damage or normal course of growth. A good herbicidal activity is given at values of at least 70, and very good herbicidal activity is given at values of at least 85.
The respective stated components A and B, and if appropriate, C were formulated as a 10% by weight strength emulsion concentrate and, with addition of the amount of solvent system, introduced into the spray liquor used for applying the active compound. In the examples, the solvent used was water.
In the examples below, using the method of S. R. Colby (1967) “Calculating synergistic and antagonistic responses of herbicide combinations”, Weeds 15, p. 22ff., the value E, which is expected if the activity of the individual active compounds is only additive, was calculated. E=X+Y−(X·Y/100) where X=effect in percent using herbicide A at an application rate a; • Y=effect in percent using herbicide B at application rate b; • E=expected effect (in %) of herbicide A+herbicide B at application rates a+b.

Digitaria sanguinalis = assay: greenhouse pre-emergence treatment, DIGSA
How it was run: as §1

Bromus sterilis = assay: greenhouse pre-emergence treatment, BROST
How it was run: as §1

Brachiaria decumbens = assay: greenhouse pre-emergence treatment, BRADC
How it was run: as §1

[1] = 20 DAT, Ex. 26 solo 62.5 gai/ha
[2] = 20 DAT, Ex. 26 solo 31.25 gai/ha

COC(=O)c1nc(C2CC2)ncc1-c1ccc(F)cc1Cl [Ex. 26]
% activity (Poa annua; solo Ex. 26 62.5 gai/ha): 70% | % activity (Poa annua; solo Ex. 26 125 gai/ha): 65% | % activity (Poa annua; Ex. 26 solo 62.5 gai/ha): 75% and 90% | % activity (Poa annua; Ex. 26 solo, 31.25 gai/ha): 30% | % activity (Poa annua; Ex. 26 solo, 125 gai/ha): 65% | % activity (Polygonum aviculare; [1]): 75% | % activity (Polygonum aviculare; 20 DAT, Ex. 26 solo 125 gai/ha): 85% | % activity (Polygonum aviculare; Ex. 26 solo 62.5 gai/ha, 20 DAT, POLAV): 85% | % activity (Polygonum aviculare; Ex. 26 solo 125 gai/ha, 20 DAT, POLAV): 90% | % activity (Polygonum aviculare; Ex. 26 solo, 125 gai/ha, 20 DAT, POLAV): 85% | % activity (Polygonum aviculare; POLAV, 21 DAT, solo Ex. 26 125 gai/ha): 90% | % activity (Galium aparine; [2]): 0% | % activity (Galium aparine; [1]): 0% | % activity (Galium aparine; 20 DAT, Ex. 26 solo 125 gai/ha): 0% | % activity (Galium aparine; 20 DAT, GALAP, Ex. 26 solo 31.25 gai/ha): 0% | % activity (Galium aparine; 20 DAT, GALAP, Ex. 26 solo 62.5 gai/ha): 0% | % activity (Galium aparine; 20 DAT, GALAP, Ex. 26 solo 125 gai/ha): 0% | % activity (Galium aparine; 20 DAT, GALAP, Ex. 26 solo 250 gai/ha): 0% | % activity (Galium aparine; Ex. 26 solo, 31.25 gai/ha, 20 DAT, GALAP): 0% | % activity (Galium aparine; Ex. 26 solo, 62.5 gai/ha, 20 DAT, GALAP): 0% | % activity (Galium aparine; Ex. 26 solo, 125 gai/ha, 20 DAT, GALAP): 0% | % activity (Galium aparine; GALAP, 20 DAT, solo Ex. 26 125 gai/ha): 0% | % activity (Galium aparine; GALAP, Ex. 26 solo 62.5 gai/ha, 20 DAT): 0% | % activity (Galium aparine; GALAP, Ex. 26 solo 125 gai/ha, 20 DAT): 0% | % activity (Galium aparine; GALAP, Ex. 26 solo 250 gai/ha, 20 DAT): 0% | % activity (Helianthus annuus; [2]): 0% | % activity (Helianthus annuus; [1]): 20% | % activity (Helianthus annuus; 20 DAT, Ex. 26 solo 125 gai/ha): 0% | % activity (Helianthus annuus; 21 DAT, Ex. 26 solo 125 gai/ha): 0% | % activity (Helianthus annuus; 21 DAT, Ex. 26 solo 250 gai/ha): 0% | % activity (Helianthus annuus; Ex. 26 solo 125 gai/ha, 21 DAT): 0% | % activity (Helianthus annuus; Ex. 26 solo 250 gai/ha, 21 DAT): 0% | % activity (Helianthus annuus; Ex. 26 solo, 62.5 gai/ha, 20 DAT): 0% | % activity (Helianthus annuus; Ex. 26 solo, 125 gai/ha, 20 DAT): 0% | % activity (Helianthus annuus; 20 DAT, solo Ex. 26 62.5 gai/ha): 0% | % activity (Helianthus annuus; Ex. 26 solo 31.25 gai/ha, 20 DAT): 0% | % activity (Helianthus annuus; Ex. 26 solo 62.5 gai/ha, 20 DAT): 0% | % activity (Helianthus annuus; Ex. 26 solo 125 gai/ha, 20 DAT): 0% | % activity (Lolium multiflorum; [2]): 10% | % activity (Lolium multiflorum; 20 DAT, LOLMU, Ex. 26 solo 62.5 gai/ha): 10% | % activity (Lolium multiflorum; Ex. 26 solo 62.5 gai/ha, 20 DAT, LOLMU): 30% | % activity (Lolium multiflorum; Ex. 26 solo, 31.25 gai/ha, 20 DAT, LOLMU): 0% | % activity (Lolium multiflorum; Ex. 26 solo, 62.5 gai/ha, 20 DAT, LOLMU): 0% | % activity (Lolium multiflorum; Ex. 26 solo, 125 gai/ha, 20 DAT, LOLMU): 0% | % activity (Lolium multiflorum; LOLMU, 20 DAT, solo Ex. 26 62.5 gai/ha): 0% | % activity (Lolium multiflorum; LOLMU, 20 DAT, solo Ex. 26 62.5 gai/ha (Table X68)): 0% | % activity (Lolium multiflorum; LOLMU, 20 DAT, solo Ex. 26 125 gai/ha): 0% | % activity (Lolium multiflorum; LOLMU, Ex. 26 solo 31.25 gai/ha, 20 DAT): 0% | % activity (Lolium multiflorum; LOLMU, Ex. 26 solo 62.5 gai/ha, 20 DAT): 0% | % activity (Lolium multiflorum; LOLMU, Ex. 26 solo 125 gai/ha, 20 DAT): 30% | % activity (Matricaria chamomilla; Ex. 26 solo 62.5 gai/ha): 0% | % activity (Matricaria chamomilla; Ex. 26 solo 125 gai/ha): 0% | % activity (Digitaria sanguinalis; [2]): 30% | % activity (Digitaria sanguinalis; [1]): 30% | % activity (Digitaria sanguinalis; 20 DAT, Ex. 26 solo 125 gai/ha): 60% | % activity (Digitaria sanguinalis; DIGSA, 20 DAT, solo Ex. 26 62.5 gai/ha): 20% | % activity (Digitaria sanguinalis; DIGSA, 20 DAT, solo Ex. 26 125 gai/ha): 45% | % activity (Digitaria sanguinalis; DIGSA, 20 DAT, solo Ex. 26 125 gai/ha (Table X68)): 40% | % activity (Digitaria sanguinalis; DIGSA, Ex. 26 solo 31.25 gai/ha, 20 DAT): 35% | % activity (Digitaria sanguinalis; DIGSA, Ex. 26 solo 62.5 gai/ha, 20 DAT): 55% | % activity (Digitaria sanguinalis; DIGSA, Ex. 26 solo 125 gai/ha, 20 DAT): 60% | % activity (Digitaria sanguinalis; Ex. 26 solo 125 gai/ha, 21 DAT, DIGSA): 45% | % activity (Digitaria sanguinalis; Ex. 26 solo, 31.25 gai/ha, 20 DAT, DIGSA): 5% | % activity (Digitaria sanguinalis; Ex. 26 solo, 125 gai/ha, 20 DAT, DIGSA): 40% | % activity (Bromus sterilis; 20 DAT, BROST, Ex. 26 solo 31.25 gai/ha): 10% | % activity (Bromus sterilis; 20 DAT, BROST, Ex. 26 solo 125 gai/ha): 35% | % activity (Bromus sterilis; 21 DAT, BROST, Ex. 26 solo 125 gai/ha): 60% | % activity (Bromus sterilis; BROST, 20 DAT, solo Ex. 26 125 gai/ha): 35% | % activity (Bromus sterilis; BROST, 20 DAT, solo Ex. 26 125 gai/ha (Table X68)): 30% | % activity (Bromus sterilis; BROST, Ex. 26 solo 62.5 gai/ha, 20 DAT): 20% | % activity (Bromus sterilis; BROST, Ex. 26 solo 125 gai/ha, 20 DAT): 30% | % activity (Bromus sterilis; Ex. 26 solo 125 gai/ha, 20 DAT, BROST): 35% | % activity (Bromus sterilis; Ex. 26 solo, 31.25 gai/ha, 20 DAT, BROST): 0% | % activity (Bromus sterilis; Ex. 26 solo, 62.5 gai/ha, 20 DAT, BROST): 20% | % activity (Bromus sterilis; Ex. 26 solo, 125 gai/ha, 20 DAT, BROST): 30% | % activity (Brachiaria decumbens; 20 DAT, BRADC, Ex. 26 solo 125 gai/ha): 50% | % activity (Brachiaria decumbens; [2]): 0% | % activity (Brachiaria decumbens; [1]): 0% | % activity (Brachiaria decumbens; 20 DAT, Ex. 26 solo 125 gai/ha): 20% | % activity (Brachiaria decumbens; 21 DAT, BRADC, Ex. 26 solo 125 gai/ha): 10% | % activity (Brachiaria decumbens; 21 DAT, BRADC, Ex. 26 solo 250 gai/ha): 30% | % activity (Brachiaria decumbens; BRADC, Ex. 26 solo 31.25 gai/ha, 20 DAT): 0% | % activity (Brachiaria decumbens; BRADC, Ex. 26 solo 62.5 gai/ha, 20 DAT): 0% | % activity (Brachiaria decumbens; BRADC, Ex. 26 solo 125 gai/ha, 20 DAT): 20% and 30% | % activity (Brachiaria decumbens; BRADC, Ex. 26 solo 250 gai/ha, 20 DAT): 65% | % activity (Brachiaria decumbens; Ex. 26 solo 62.5 gai/ha, 20 DAT, BRADC): 20% | % activity (Brachiaria decumbens; Ex. 26 solo 125 gai/ha, 20 DAT, BRADC): 0% | % activity (Brachiaria decumbens; Ex. 26 solo, 31.25 gai/ha, 20 DAT, BRADC): 0% | % activity (Brachiaria decumbens; Ex. 26 solo, 62.5 gai/ha, 20 DAT, BRADC): 0% | % activity (Brachiaria decumbens; Ex. 26 solo, 125 gai/ha, 20 DAT, BRADC): 0%
